Laboratory results: patent publication US9594084B2, “Phosphorylation of histones and uses thereof” (H. LEE MOFFITT CANCER CENTER AND RESEARCH INSTITUTE, priority 2012, dated 2017)
Entries after “also recorded” stand apart in the source; their conditions may differ.

Experiments:
Xenopus laevis embryos = test system: Xenopus laevis embryos
Text: Table 4 provides the phenotype distribution for surviving embryos (raw data are identical to those in Table 3).

Ack1 [1] = biological target: T1, Ack1 (Homo sapiens, UniProt Q07912); format: biochemical
Method: Purified histone H3 and Ack1 were incubated at 37° C. for 1 hour with or without AIM-100 followed by immunoblotting with indicated antibodies.

[2] = test system: pTyr-AR recruitment to PSA, NKX3,1 and TMPRSS2 promoters; assay: ChIP-qPCR for pTyr267-AR binding to PSA, NKX3.1 and TMPRSS2 AREs in LAPC4 cells; format: cell-based; details: EGF (10 ng/ml, 1 hr), AIM-100 0.8 μM, 16 hr
Method: FIG. 8A-8C are bar graphs showing Ack1 inhibition by AIM-100 suppressed recruitment of pTyr-AR to PSA (FIG. 8A), NKX3.1 (FIG. 8B) and TMPRSS2 (FIG. 8C) promoters. LAPC4 cells were treated with DHT (5 nM, 16 hr) or EGF (10 ng/ml, 1 hr), and AIM-100 (0.8 μM, 16 hr) and ChIP analysis for pTyr267-AR binding to the PSA, NKX3.1 and TMPRSS2 AREs was performed followed by qPCR. *p=0.001; **p=0.006; ***p=0.014.
LAPC4 cells were treated with DHT (5 nM, 16 hr), EGF (10 ng/ml, 1 hr), or EGF and AIM-100 (0.8 μM, 16 hr) and ChIP analysis for pTyr267-AR binding to the PSA, NKX3.1 and TMPRSS2 AREs was performed followed by qPCR. Ack1 inhibition by AIM-100 suppressed recruitment of pTyr-AR to PSA, NKX3,1 and TMPRSS2 promoters (FIGS. 8A-8C).

[3] = test system: LNCaP-caAck expressing cells; assay: LNCaP-caAck prostate xenograft tumor growth in castrated nude male mice; format: in vivo; details: 4 mg/kg of body weight per injection, five times
Method: FIG. 9 is a line graph showing prostate xenograft tumor volume (mm^3) in castrated nude male mice treated with AIM-100 Ack1 inhibitor or DMSO control. Castrated nude male mice were injected with LNCaP-caAck expressing cells. Mice were injected with AIM-100 (4 mg/kg of body weight per injection) on five times (n=8) and tumor volumes were measured.
Castrated nude male mice were injected with LNCaP-caAck expressing cells. Mice were injected with AIM-100 (4 mg/kg of body weight per injection) on five times (n=8) and tumor volumes were measured.

H3K9 and K27 methylation = assay: Immunoblot of H3K9/H3K27 methylation in LAPC4 cells; format: cell-based
Method: FIG. 25 is an immunoblot of lysates from LAPC4 cells that were untreated (column 1), treated with EGF (column 2), or treated with EGF and AIM-100 (column 3) that were immunoblotted with H3K9 dimethyl (top panel), H3K27 (middle panel), or H3 (bottom panel) antibodies.
The prostate cancer derived cells, LAPC4 were treated with AIM-100 (7 uM, 16 hours). The equal amount of cell lysates were subjected to immunoblotting with H3K9me3 and histone H3 antibodies. […] The histone H3 antibodies were used as a control to indicate equal amount of protein.
(§1) LAPC4 cells were treated with EGF or EGF and AIM-100 and the lysates were immunoblotted with H3K9 dimethyl and H3K27 dimethyl antibodies. Thus, marking of chromatin with H3-Tyr99-phosphorylation within AR-target gene promoters may suppress repressive dimethylation leading to transcriptional activation in androgen-deprived environment of prostate tumors.
as §1, with “H3K9” for “H3K9 dimethyl”, “H3K27” for “H3K27 dimethyl”

Ack1 [4] = biological target: T2, Ack1 (Homo sapiens, UniProt Q07912, E346K); format: biochemical; details: 5 uM for 1 hour at 30° C.
T2 construct: HA; made in house

Ack1 [5] = biological target: T1, Ack1; format: biochemical; details: ELISA, read at 450 nm
Method: WEE1 and Ack1 are two non-receptor tyrosine kinases or NRTKs that have known nuclear functions. To determine whether WEE1 and Ack1 can directly target H4 for Tyr88-phosphorylation, this study performed in vitro kinase assay. In brief, the Streptavidin coated 96-well plates (R&D systems) were incubated with biotinylated H4-derived peptide […] (SEQ ID NO: 64) for 1 hour. The plates were washed and the purified WEE1 or Ack1 were added in kinase buffer (20 mM HEPES, 150 mM NaCl, 0.5% Triton X-100, 10% Glycerol, phosphatase and protease inhibitors) containing ATP and MgCl2. After 2 hours of incubation, plates were washed with phosphate buffered saline containing 0.1% Tween 20 (PBST) and blocked in 3% BSA. The pY88-H4 antibodies (at 1:500 dilution) were added and incubated for 1 hour. Unbound antibodies were washed and HRP-conjugated anti-mouse secondary Antibodies (1:2000) were added. Magnitude of phosphorylation was detected using developer solution (OPD tablets, Sigma) and the plates were read at 450 nm. As a negative control, no kinase and no peptide reactions were used. The biotinylated phosphopeptide […]p[…] (SEQ ID NO: 65) was used as a positive control.

ATM = biological target: T3, ATM (Homo sapiens, UniProt Q13315); assay: IR-induced de-phosphorylation of pY37-H2B in H1975 cells (immunoblot); format: cell-based; details: H1975 irradiated (15GY)
T3 construct: endogenous in cells; host or cells: H1975
Text: Whole cell extracts were immunoblotted with indicated antibodies.
To determine whether pY37-H2B de-phosphorylation is regulated by ATM recruited to the sites of DSBs by the MRN complex, Applicants treated the cells with the ATM inhibitor Ku55393. […] EYA in turn interacted with H2AX executing a damage-signal-dependent dephosphorylation of Tyr142, that is constitutively phosphorylated in the absence of DNA damage (Cook, P. J. et al. (2009) Nature, 458(7238):591-596).

[6] = Table 3, of total injected embryos

T1 sequence (Q07912 whole entry): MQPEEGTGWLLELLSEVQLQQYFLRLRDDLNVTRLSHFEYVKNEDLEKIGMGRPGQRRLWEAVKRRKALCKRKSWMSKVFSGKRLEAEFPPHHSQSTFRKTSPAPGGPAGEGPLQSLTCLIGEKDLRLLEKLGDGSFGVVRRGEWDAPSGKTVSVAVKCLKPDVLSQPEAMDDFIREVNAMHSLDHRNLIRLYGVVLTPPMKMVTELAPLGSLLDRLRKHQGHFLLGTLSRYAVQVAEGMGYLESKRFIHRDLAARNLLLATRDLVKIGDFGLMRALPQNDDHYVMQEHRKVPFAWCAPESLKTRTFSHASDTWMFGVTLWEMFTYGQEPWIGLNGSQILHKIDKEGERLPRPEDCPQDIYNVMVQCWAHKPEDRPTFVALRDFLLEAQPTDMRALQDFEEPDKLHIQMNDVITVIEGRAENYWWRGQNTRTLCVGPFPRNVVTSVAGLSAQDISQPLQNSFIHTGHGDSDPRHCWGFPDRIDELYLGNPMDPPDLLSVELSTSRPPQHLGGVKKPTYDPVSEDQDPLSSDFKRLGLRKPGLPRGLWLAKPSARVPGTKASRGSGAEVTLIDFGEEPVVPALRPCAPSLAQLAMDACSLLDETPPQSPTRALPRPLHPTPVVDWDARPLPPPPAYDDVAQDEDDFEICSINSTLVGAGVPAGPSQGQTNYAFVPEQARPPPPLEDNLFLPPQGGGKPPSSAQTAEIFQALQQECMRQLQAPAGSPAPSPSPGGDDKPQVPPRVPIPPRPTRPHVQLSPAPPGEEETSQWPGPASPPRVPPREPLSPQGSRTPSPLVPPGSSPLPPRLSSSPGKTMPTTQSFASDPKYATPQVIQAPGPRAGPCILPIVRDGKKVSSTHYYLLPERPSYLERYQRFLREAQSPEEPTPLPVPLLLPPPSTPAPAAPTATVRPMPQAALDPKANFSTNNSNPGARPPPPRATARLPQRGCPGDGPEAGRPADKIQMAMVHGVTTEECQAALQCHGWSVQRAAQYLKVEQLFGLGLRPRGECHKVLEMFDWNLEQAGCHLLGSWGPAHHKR
T3 sequence (Q13315 whole entry): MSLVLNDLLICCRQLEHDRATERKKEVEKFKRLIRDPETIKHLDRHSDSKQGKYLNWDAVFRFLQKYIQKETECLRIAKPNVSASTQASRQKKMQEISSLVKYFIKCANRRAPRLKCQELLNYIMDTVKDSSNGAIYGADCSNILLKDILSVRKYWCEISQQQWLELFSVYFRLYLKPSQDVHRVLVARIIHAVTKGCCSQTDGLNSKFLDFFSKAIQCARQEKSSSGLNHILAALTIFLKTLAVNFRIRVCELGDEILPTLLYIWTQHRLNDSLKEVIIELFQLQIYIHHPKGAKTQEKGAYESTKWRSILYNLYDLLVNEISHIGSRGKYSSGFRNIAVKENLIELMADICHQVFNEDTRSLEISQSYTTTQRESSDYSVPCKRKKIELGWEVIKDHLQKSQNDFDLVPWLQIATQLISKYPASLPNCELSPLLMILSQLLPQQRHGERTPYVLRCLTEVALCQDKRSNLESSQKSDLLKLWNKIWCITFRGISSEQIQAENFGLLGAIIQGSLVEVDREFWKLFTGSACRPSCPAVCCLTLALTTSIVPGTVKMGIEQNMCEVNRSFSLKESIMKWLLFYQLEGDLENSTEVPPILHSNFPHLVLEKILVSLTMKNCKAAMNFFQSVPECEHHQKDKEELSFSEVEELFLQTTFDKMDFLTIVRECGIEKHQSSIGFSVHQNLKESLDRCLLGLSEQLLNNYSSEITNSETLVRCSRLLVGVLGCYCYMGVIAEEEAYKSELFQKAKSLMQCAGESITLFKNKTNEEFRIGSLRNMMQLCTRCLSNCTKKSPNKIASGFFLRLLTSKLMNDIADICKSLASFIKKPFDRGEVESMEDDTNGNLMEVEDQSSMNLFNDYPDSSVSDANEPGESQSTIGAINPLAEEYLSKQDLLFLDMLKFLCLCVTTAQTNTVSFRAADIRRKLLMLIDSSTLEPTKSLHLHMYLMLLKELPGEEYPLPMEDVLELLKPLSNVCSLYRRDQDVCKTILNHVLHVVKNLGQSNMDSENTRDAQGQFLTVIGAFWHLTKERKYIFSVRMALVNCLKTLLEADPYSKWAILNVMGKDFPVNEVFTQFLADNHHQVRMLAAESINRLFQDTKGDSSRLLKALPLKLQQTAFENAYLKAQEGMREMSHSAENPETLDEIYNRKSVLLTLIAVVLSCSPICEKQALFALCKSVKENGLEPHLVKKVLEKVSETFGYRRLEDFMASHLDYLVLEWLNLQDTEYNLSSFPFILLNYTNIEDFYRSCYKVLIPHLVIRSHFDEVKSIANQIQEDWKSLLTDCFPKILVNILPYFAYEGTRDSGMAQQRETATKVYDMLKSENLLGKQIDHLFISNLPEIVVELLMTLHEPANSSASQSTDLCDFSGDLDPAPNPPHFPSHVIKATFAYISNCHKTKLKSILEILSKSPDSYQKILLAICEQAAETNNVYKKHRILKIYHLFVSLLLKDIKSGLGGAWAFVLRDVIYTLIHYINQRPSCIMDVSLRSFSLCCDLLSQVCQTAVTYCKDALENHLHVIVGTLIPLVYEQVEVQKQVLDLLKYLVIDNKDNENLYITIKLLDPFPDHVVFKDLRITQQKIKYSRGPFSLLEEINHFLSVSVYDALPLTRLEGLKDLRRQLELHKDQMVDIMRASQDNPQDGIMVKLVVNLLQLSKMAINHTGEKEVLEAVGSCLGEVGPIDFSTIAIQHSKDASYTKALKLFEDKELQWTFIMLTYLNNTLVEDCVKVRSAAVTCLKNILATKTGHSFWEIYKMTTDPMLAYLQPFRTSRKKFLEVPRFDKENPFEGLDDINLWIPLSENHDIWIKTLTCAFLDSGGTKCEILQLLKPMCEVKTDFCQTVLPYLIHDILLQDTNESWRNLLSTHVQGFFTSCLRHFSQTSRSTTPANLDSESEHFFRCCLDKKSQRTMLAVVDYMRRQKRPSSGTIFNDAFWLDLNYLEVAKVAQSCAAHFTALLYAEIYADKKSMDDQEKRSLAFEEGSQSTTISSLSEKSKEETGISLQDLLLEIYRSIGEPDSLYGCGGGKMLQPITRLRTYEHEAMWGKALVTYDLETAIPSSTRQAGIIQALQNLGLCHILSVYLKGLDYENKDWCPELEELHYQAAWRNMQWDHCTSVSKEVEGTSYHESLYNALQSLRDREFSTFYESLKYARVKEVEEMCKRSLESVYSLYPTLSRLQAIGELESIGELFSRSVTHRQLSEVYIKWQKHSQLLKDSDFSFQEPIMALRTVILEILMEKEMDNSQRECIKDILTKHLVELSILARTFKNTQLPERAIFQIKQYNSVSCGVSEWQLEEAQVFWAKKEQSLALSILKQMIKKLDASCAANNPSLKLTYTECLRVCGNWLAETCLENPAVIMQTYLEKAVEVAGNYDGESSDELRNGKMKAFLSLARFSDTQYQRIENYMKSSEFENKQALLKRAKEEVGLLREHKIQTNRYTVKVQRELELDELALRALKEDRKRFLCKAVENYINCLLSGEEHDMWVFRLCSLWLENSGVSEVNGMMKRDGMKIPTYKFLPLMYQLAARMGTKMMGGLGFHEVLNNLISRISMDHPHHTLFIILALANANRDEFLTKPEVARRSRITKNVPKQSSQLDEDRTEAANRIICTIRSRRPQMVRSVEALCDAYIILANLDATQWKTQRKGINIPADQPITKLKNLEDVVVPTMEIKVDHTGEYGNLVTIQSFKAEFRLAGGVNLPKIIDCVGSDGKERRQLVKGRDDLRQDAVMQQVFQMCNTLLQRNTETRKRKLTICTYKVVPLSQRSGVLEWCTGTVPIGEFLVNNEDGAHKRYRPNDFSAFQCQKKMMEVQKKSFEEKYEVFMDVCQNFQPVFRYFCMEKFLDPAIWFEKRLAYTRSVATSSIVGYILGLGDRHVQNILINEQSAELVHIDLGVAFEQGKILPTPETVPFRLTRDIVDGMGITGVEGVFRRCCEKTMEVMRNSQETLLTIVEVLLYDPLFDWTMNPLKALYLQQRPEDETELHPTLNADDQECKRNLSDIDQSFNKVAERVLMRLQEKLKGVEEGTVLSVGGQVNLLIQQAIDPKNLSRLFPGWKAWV
T2 sequence (Q07912 whole entry E346K): as the sequence (Q07912 whole entry) above, with E346K counted along it

## c1ccc(-c2oc3ncnc(NC[C@@H]4CCCO4)c3c2-c2ccccc2)cc1 [AIM-100]
Xenopus laevis embryos; [6]
  abn/delay, gastrulation is abnormal or delayed (% of total): (6.7%)
  abn/delay, gastrulation is abnormal or delayed (number of embryos): 15
  dead (% of total): (43%)
  dead (number of embryos): 97
  epib blk, epiboly block phenotype (% of total): (29%)
  epib blk, epiboly block phenotype (number of embryos): 65
  epib red, partial phenotype (% of total): (8%)
  epib red, partial phenotype (number of embryos): 18
  norm. (% of total): (11%)
Xenopus laevis embryos; Table 3, of total injected embryos, antibodies 200 ng/em, AIM-100 200 pM/em
  norm. (number of embryos): 24
Xenopus laevis embryos; Table 4, surviving embryos
  abn/delay (% of survivors): 12%
  abn/delay (number of embryos): 15
  epib blk (number of embryos): 65
  epib red (number of embryos): 18
  normal (% of survivors): 19%
  normal (number of embryos): 24
Xenopus laevis embryos; by the onset of gastrulation (~20 hours after microinjection at the 2-cell stage, 16° C.)
  mortality rate: 43-45%
Xenopus laevis embryos; injected embryos
  timing or pattern of early cleavages: did not alter
Xenopus laevis embryos; surviving embryos
  epib blk, epiboly block/involution failure (% of survivors): 51%
  epib red, partial reduced epiboly phenotype (% of survivors): 14%
Ack1 [1]
  Ack1 phosphorylation of H3 at Tyr99: significantly compromised
[2]
  recruitment of pTyr-AR to PSA, NKX3,1 and TMPRSS2 promoters: suppressed
[3]
  prostate xenograft tumor growth: mitigated the growth; also recorded: partially suppresses
H3K9 and K27 methylation
  H3K9 and K27 dimethylation and trimethylation: increased
H3K9 and K27 methylation; LAPC4 cells, 7 uM, 16 hours
  H3 K9 trimethylation: increased; also recorded: significant increase
H3K9 and K27 methylation; LAPC4 cells, EGF and AIM-100
  H3K9 and K27 dimethylation: increased
Ack1 [4]
  H4 pTyr51-phosphorylation by purified E346K-Ack1: abrogated
Ack1 [5]
  H4 Tyr88-phosphorylation by Ack1: significantly decreased

## O=c1cc(-c2cccc3c2Sc2ccccc2S3)oc(N2CCOCC2)c1 [Ku55393]
ATM
  IR-induced de-phosphorylation of pY37-H2B: prevented
